In patent US20040054009A1, “(BIS)sulfonamide derivatives” (priority 2002, published 2004):

Assays:
human GluR4B receptor = target: T1, human GluR4B receptor (Homo sapiens, UniProt P48058); assay: potentiation of agonist-induced excitability, HEK cells expressing human GluR4B (Fluo3-AM fluorescence, glutamate); type: cell-based; conditions: human GluR4B receptor expressed in HEK 293 cells
T1 construct: expressed in transfected cells
Protocol: 96 well plates containing confluent monolayers of HEK cells stably expressing human GluR^4B (obtained as described in European Patent Application Publication Number EP-A1-583917) were prepared. The tissue culture medium in the wells was then discarded, and the wells were each washed once with 200 μl of 5NaCa buffer (glucose, 10 mM, sodium chloride, 138 mM, magnesium chloride, 1 mM, potassium chloride, 5 mM, calcium chloride, 5 mM, N-[2-hydroxyethyl]-piperazine-N-[2-ethanesulfonic acid], 10 mM, to pH 7.1 to 7.3). The plates were then incubated for 60 minutes in the dark with 20 μM Fluo3-AM dye (obtained from Molecular Probes Inc, Eugene, Oreg.) in 5 NaCa buffer in each well. After the incubation, each well was washed once with 100 μl 5NaCa buffer, 200 μl of 5NaCa buffer was added and the plates were incubated for 30 minutes. […]
Each test was then performed as follows. […] A first reading was then taken using a FLUOROSKAN II fluorimeter (Obtained from Labsystems, Needham Heights, Mass., USA, a Division of Life Sciences International Plc). […] A second reading was then taken using the fluorimeter. The plate was then left in the fluorimeter for 5 minutes, and a third reading was taken. 15 μl of 400 μM glutamate solution was then added to each well (final glutamate concentration 100 μM), and a fourth reading was taken immediately. Approximately three minutes later, a fifth reading was taken. […]

human GluR4 = human GluR4 (Homo sapiens, UniProt P48058); assay: whole cell voltage clamp electrophysiological characterization of AMPA receptor potentiators (response to 100 μM glutamate); type: cell-based; conditions: HEK293 cells stably expressing human GluR4, voltage-clamped at −60 mV, Hill equation fit
Excerpt: In another test, HEK293 cells stably expressing human GluR^4 (obtained as described in European Patent Application Publication No. EP-A1-0583917) were used in the electro-physiological characterization of AMPA receptor potentiators. The extracellular recording solution contained (in mM): 140 NaCl, 5 KCl, 10 HEPES, 1 MgCl2, 2 CaCl2, 10 glucose, pH=7.4 with NaOH, 295 mOsm kg^−1. The intracellular recording solution contained (in mM): 140 CsCl, 1 MgCl2, 10 HEPES, (N-[2-hydroxyethyl]piperazine-N^1-[2-ethanesulfonic acid]) 10 EGTA (ethylene-bis(oxyethylene-nitrilo)tetraacetic acid), pH=7.2 with CsOH, 295 mOsm kg^−1. […] Once stable baseline responses to this agonist challenge were obtained, the potentiator was introduced in the extracellular solution bathing the cells at the lowest concentration, and the response to 100 μM glutamate in the presence of this concentration of potentiator was determined.
The concentration of the potentiator, both in the bathing solution and co-applied with the agonist, was increased in half log units until the maximum potentiation was seen. […] Once the control responses to the agonist challenge were re-established, the potentiation of these responses by 100 μM cyclothiazide was determined by its inclusion in both the bathing solution and the agonist-containing solution. […]

T1 sequence (P48058 21-902): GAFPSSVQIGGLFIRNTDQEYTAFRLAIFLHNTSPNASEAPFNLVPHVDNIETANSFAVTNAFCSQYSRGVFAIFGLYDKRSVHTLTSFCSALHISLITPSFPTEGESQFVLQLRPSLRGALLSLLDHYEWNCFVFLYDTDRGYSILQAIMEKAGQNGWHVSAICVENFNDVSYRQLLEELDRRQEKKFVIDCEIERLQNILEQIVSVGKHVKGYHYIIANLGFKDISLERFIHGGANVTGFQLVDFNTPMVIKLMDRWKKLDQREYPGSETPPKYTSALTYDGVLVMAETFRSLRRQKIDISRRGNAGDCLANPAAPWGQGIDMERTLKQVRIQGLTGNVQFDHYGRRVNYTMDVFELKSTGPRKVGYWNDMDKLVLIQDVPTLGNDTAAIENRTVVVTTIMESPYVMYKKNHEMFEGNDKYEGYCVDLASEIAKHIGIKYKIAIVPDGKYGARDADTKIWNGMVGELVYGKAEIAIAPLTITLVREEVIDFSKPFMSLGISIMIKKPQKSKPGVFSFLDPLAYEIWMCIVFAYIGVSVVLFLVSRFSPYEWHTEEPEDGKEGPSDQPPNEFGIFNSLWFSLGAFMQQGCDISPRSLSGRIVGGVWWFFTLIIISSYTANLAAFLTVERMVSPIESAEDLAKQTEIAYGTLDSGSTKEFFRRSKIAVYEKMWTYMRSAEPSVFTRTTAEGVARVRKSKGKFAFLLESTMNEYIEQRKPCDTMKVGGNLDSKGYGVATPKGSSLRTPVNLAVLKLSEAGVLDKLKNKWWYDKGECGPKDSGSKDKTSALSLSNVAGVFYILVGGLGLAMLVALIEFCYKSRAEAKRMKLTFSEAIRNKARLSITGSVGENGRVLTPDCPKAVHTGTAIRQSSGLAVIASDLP
human GluR4, sequence (P48058 21-902): as above

melting point [°C] | SMILES | also measured
87 to 89.5 | CC(C)S(=O)(=O)NCC1(c2ccc(C(C)(C)C)cc2)CC1 [Example 25, N-1-(4-t-butylphenyl)cyclopropylmethyl 2-propanesulfonamide] | –
82 to 84 | CC(C)(C)c1ccc(C2(CNS(=O)(=O)C(F)(F)F)CC2)cc1 [Example 24, N−1-(4-t-butylphenyl)cyclopropylmethyl Trifluoromethanesulfonamide] | –
– | NS(=O)(=O)c1cc2c(cc1Cl)NC(C1CC3C=CC1C3)NS2(=O)=O (stereo not shown) [cyclothiazide] | potentiation of agonist-induced excitability of human GluR4B receptor (human GluR4B receptor): potentiate agonist-induced excitability
– | CC(CNS(=O)(=O)C(C)C)c1ccc(-c2ccsc2)cc1 (stereo not shown) [Example 28] | EC50 (human GluR4): 230 ± 59 nM
